“And” between values parts separate entries of the source, which are not always exact repeats. Equal values may be shown once.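 Following 48 hours of exposure in 96-well plates, responses at five concentrations were used to interpolate endpoints linearly. The concentration for 50% growth inhibition is given as GI50. TGI: concentration producing complete growth inhibition.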
How the values were obtained:
Assay in all cases: inhibition of tumour cell growth, NCI panel, 48 h
[1] = system: EKVX NSCLC
[2] = system: HCT-116 colon
[3] = system: HOP-92 NSCLC
[4] = system: LOX IMVI melanoma
[5] = system: OVCAR-4 ovarian
[6] = system: RPMI-8226 leukemia
[7] = system: RXF 393 renal
[8] = system: SF-295 CNS
[9] = system: SN12C renal
[10] = system: UACC-62 melanoma
[11] = system: UO-31 renal

| Structure (SMILES) | TGI [1] [µM] | TGI [2] [µM] | TGI [3] [µM] | TGI [4] | TGI [5] | TGI [6] | TGI [7] [µM] | TGI [8] | TGI [9] | TGI [10] [µM] | TGI [11] | GI50 [2] | GI50 [4] | GI50 [10] |
| --- | --- | --- | --- | --- | --- | --- | --- | --- | --- | --- | --- | --- | --- | --- |
| CC1(C)NC2C(=O)c3c([nH]c4ccccc34)[C@]3(C)CCC1CC23 (stereo partly drawn) | > 100 | > 100 | > 100 | > 100 µM | > 100 µM | > 100 µM | > 100 | > 100 µM | > 100 µM | > 100 | > 100 µM |  |  |  |
| COc1ccc2ccccc2c1/C=C/C(=O)c1ccccc1 | 12.1 | 11 | 6.97 | 10.9 µM | 9.4 µM | 4.07 µM | 3.88 | 15.6 µM | 11 µM | 9.35 | 9.36 µM |  |  |  |
| CC1OC(OC2C(O[C@H]3CC[C@@]4(C)C(=CC[C@H]5[C@@H]6C[C@@H]7O[C@]8(CC[C@@H](CO)CO8)[C@@H](C)[C@@H]7[C@@]6(C)CC[C@@H]54)C3)OC(CO)C(O)C2OC2OC(CO)C(O)C(O)C2O)C(O)C(O)C1O (stereo partly drawn) | 3.96 | 3.02 | 3.32 | 3.39 µM | 3.69 µM | 3.92 µM | 3.01 |  | 3.21 µM | 3.23 | 5.46 µM |  |  |  |
| NN/C(=N\S(=O)(=O)c1cc2ccccc2s1)Nc1ccc(Cl)cc1 | 42.2 | 30.6 | 39.6 | 38.6 µM | 38.5 µM | 35.6 µM | 29.6 | 43.2 µM | 39 µM | 35.5 | 32.1 µM |  |  |  |
| O=c1cc(-c2ccc(F)cc2)[nH]c2ncc(Cl)cc12 | > 100 | > 61.3 | 65.4 | > 100 µM | > 100 µM | 62.4 µM | 89.2 | 78.5 µM | > 100 µM | > 100 | > 100 µM |  |  |  |
| Nc1cc2[nH]c(=O)c(=O)[nH]c2cc1N | > 100 | > 100 | > 100 | > 100 µM | > 100 µM | > 100 µM | > 100 | > 100 µM | > 100 µM | > 100 | > 100 µM |  |  |  |
| CCOc1cn(C2CC(O)C(CO)O2)c(=O)[nH]c1=O (stereo not drawn) | > 100 | > 100 | > 100 | > 100 µM | > 100 µM | > 100 µM | > 100 |  | > 100 µM | > 100 | > 100 µM |  |  |  |
| CC1=NNC(N)=N/C1=C\C(Sc1ccc(Cl)cc1)c1ccc([N+](=O)[O-])cc1 (stereo not drawn) | > 100 | > 100 | > 100 | > 100 µM | > 100 µM | > 100 µM | > 100 | > 100 µM | > 100 µM | > 100 | > 100 µM |  |  |  |
| Cc1nc(-c2cc3cc([N+](=O)[O-])ccc3oc2=O)cs1 | > 100 | > 100 | > 100 | > 100 µM | > 100 µM | > 100 µM | > 100 | > 100 µM | > 100 µM | > 100 | > 100 µM |  |  |  |
| O=C(N/N=C\c1cccc2c([N+](=O)[O-])cccc12)Nc1ccccc1 | 35.1 | 16.1 | 30.4 | 25.4 µM | 29.2 µM | 44 µM | 26.3 | 32.5 µM | 18.9 µM | 24.4 | 26.4 µM |  |  |  |
| Oc1c(CN2CCOCC2)ccc2cccnc12 | > 10 | > 10 | > 10 | > 10 µM | > 10 µM | > 10 µM | > 10 | > 10 µM | > 10 µM |  | > 10 µM |  |  |  |
| CSc1ccc2c(cc1=O)[C@@H](NC(=O)c1ccc(N)cc1)CCc1cc(O)c(O)c(O)c1-2 | > 100 | > 100 | > 100 | > 75 µM and 22.9 µM | 34.1 µM and 54 µM | > 75 µM and 94.2 µM | > 100 | 39.2 µM and 46.1 µM | > 75 µM and 90.1 µM | > 100 | 33.8 µM and > 100 µM | 23.8 µM and 11 µM | 12 µM and 4.07 µM | 21.5 µM and 7.58 µM |
| O=C1C=C(C2=CC(=O)C(=O)c3ccccc32)c2ccccc2C1=O | > 100 | 50.1 | 39.3 | > 100 µM | > 100 µM | 46.2 µM | > 100 | 66.5 µM | > 100 µM | > 100 | > 100 µM |  |  |  |
| COc1cc(C(=O)N(Cc2cccnc2)C(=S)N(Cc2cccnc2)C(=O)c2cc(OC)c(OC)c(OC)c2)cc(OC)c1OC | > 100 | > 100 | 52.2 | > 100 µM | 43.5 µM | > 100 µM | > 100 | > 100 µM | > 100 µM | 73.9 | > 100 µM |  |  |  |
| COC[C@@H](C[C@H]1O[C@@](O)([C@H](O)[C@@H]2C[C@H](OC)[C@@H](O)CC/C=C(C)/C=C/[C@@H](O[C@@H]3O[C@@H](C)[C@H](OC)[C@@H](O)[C@@H]3O)[C@H](C)/C=C(C)/C=C(C)/C=C(\C)C(=O)O2)[C@H](C)[C@@H](O)[C@H]1C)O[C@H]1C[C@](C)(O)[C@@H](O[C@H]2C[C@@H](OC)[C@H](O)[C@@H](C)O2)C(C)O1 (stereo partly drawn) | > 55.9 | > 100 | > 100 | > 100 µM | > 100 µM | > 100 µM | > 100 | > 100 µM | > 100 µM | > 100 | > 100 µM |  |  |  |
| O=C(NI1OC(=O)c2ccccc21)c1ccc(Cl)cc1 | > 100 | > 100 | > 100 | > 100 µM | > 100 µM | > 100 µM | > 100 | > 100 µM | > 100 µM | > 100 | > 100 µM |  |  |  |
| Cc1cc(S(=O)(=O)N=C2N(Cc3ccccc3)CCN2Cc2ccccc2)c(S)cc1Cl | > 100 | > 100 | > 100 | > 100 µM | > 100 µM | > 100 µM | > 100 | > 100 µM | > 100 µM | > 100 | 47.4 µM |  |  |  |

| Structure (SMILES) | TGI [1] [µM] | TGI [2] [µM] | TGI [3] [µM] | TGI [4] | TGI [5] | TGI [6] | TGI [7] [µM] | TGI [8] | TGI [9] | TGI [10] [µM] | TGI [11] | GI50 [2] | GI50 [4] | GI50 [10] |
| --- | --- | --- | --- | --- | --- | --- | --- | --- | --- | --- | --- | --- | --- | --- |
| O=Cc1ccc2c(c1)CC1(Cc3ccccc3C1)C2 | > 100 | > 100 | 32.9 | 37.9 µM | 48.7 µM | 53.4 µM | > 100 | 94.5 µM | 34.4 µM | 41.4 | 58.7 µM |  |  |  |
| CCOP(C)(=O)C(N)Cc1ccc(OC)c(OC)c1 (stereo not drawn) | > 100 | > 100 | > 100 | > 100 µM | > 100 µM | > 100 µM | > 100 | > 100 µM | > 100 µM | > 100 | > 100 µM |  |  |  |
| CON(C)C(=O)CNC(=O)OCC1c2ccccc2-c2ccccc21 | > 100 | > 100 | > 100 | 53.1 µM | > 100 µM | 91.7 µM | > 100 | > 100 µM | > 100 µM | > 100 | > 100 µM |  |  |  |
| CCN(CC)C(=O)Cn1c(C)cc2ccccc21 | > 100 | > 100 | > 100 | > 100 µM | > 100 µM | > 100 µM | > 100 | > 100 µM | > 100 µM | > 100 | > 100 µM |  |  |  |
| O=C1C(CN2CCCCC2)CCC1CN1CCCCC1 (stereo not drawn) | > 100 | 49.5 | 54.6 | 31.7 µM |  | 28.4 µM | 28.3 | > 46.4 µM | 45.5 µM | 32.3 | 22.1 µM |  |  |  |
| CC1NC(=O)CC(c2ccccc2)N(N=O)C1c1ccccc1 (stereo not drawn) | > 100 | > 100 | > 100 | > 100 µM | > 87.5 µM | 90.8 µM | 53.5 | > 100 µM | > 100 µM | > 100 | > 100 µM |  |  |  |
| COc1cc(CNCc2cc(OC)c(OC)c(OC)c2)cc(OC)c1OC | > 10 | > 10 | > 10 | > 10 µM | > 10 µM | > 10 µM | > 10 | > 10 µM | > 10 µM | > 10 | > 10 µM |  |  |  |
| CCOC(=O)C(=Cc1[nH]c2ccccc2c1-c1c[nH]c2ccccc12)C(=O)OCC | 31.8 | 22.8 | 23.5 | 26.7 µM | 20.3 µM | 23.8 µM | 23.3 | 25.3 µM | 29.4 µM | 19.4 | 26.3 µM |  |  |  |
| CCOCc1nc2c(OC)cc(-c3nc4ccc(N5CCN(C)CC5)cc4[nH]3)c(OC)c2[nH]1 | > 100 | > 100 | > 100 | 42.3 µM | > 100 µM | > 100 µM | 36.2 | 36.8 µM | > 100 µM | 34.6 | 41.8 µM |  |  |  |
| Cc1c(S(=O)(=O)/N=C(\NO)Nc2ccc(Cl)c(Cl)c2)sc2ccc(Cl)cc12 | 27.4 | 37 | 43.8 | 43.3 µM | 32.3 µM | > 100 µM | 34 | 33.6 µM | 35.8 µM | 37.2 | 37.8 µM |  |  |  |
| Cc1ccc2c(c1)C(C(=O)N[C@@H]1C(=O)N3[C@@H]1SC(C)(C)[C@@H]3C(=O)O)OCCC2 (stereo partly drawn) | > 100 | > 100 | > 100 | > 100 µM | > 100 µM | > 100 µM | > 100 | > 100 µM | > 100 µM | > 100 | > 100 µM |  |  |  |
| COc1cccc(-c2ccc3c4c2O[C@H]2C(=O)CC[C@@]5(O)[C@@H](C3)N(CC3CC3)CC[C@]425)c1 | 41 | 33.2 | 38.4 | 30.9 µM | 31.4 µM | 30.9 µM | 21.8 | 32.6 µM | 41.4 µM | 32.7 | 28.3 µM |  |  |  |
| CCCCN1C(=O)N(c2ccc(OCC)cc2)C2N(CCCC)C1C(C)(C)C2(C)C (stereo not drawn) | 50.6 | > 100 | 85.1 | > 100 µM | > 100 µM | 42 µM | 39.1 | > 100 µM | > 100 µM | 50 | 88.9 µM |  |  |  |
| CCN(CC)C(=S)N/N=C(/C)c1cccc(/C(C)=N\NC(=S)N(CC)CC)n1 | 12.5 | 11.4 | 7.74 | 7.36 µM | 7.32 µM | 6.17 µM | 7.03 | 6.7 µM | 12.4 µM | 8.15 | 7.94 µM |  |  |  |
| O=C1CC(=Nc2ccc(Cl)cc2)C(c2ccccc2)N1c1ccccc1 (stereo not drawn) | > 100 | 65.1 | 54.6 | 61.5 µM | > 100 µM | 13.1 µM | > 100 | > 100 µM | > 100 µM | 6.6 | > 100 µM |  |  |  |
| COc1cc(/C=C2/C[C@H]3[C@@H]4CC=C5C[C@@H](O)CC[C@]5(C)[C@H]4CC[C@]3(C)NC2=O)cc(OC)c1OC | > 92.8 | > 66.3 | 25 | > 100 µM | > 86.5 µM | > 44.4 µM | 42.3 | > 65.3 µM | > 64.2 µM | 75.4 | 29.8 µM |  |  |  |
| COc1ccc(C(=C(Cl)c2ccccc2)c2ccc(OC)cc2)cc1 | > 100 | > 100 | > 100 | > 100 µM | > 100 µM | > 100 µM | > 100 | > 100 µM | > 100 µM | > 100 | > 100 µM |  |  |  |

— PubChem BioAssay (NCI)
